Reference: patent US6087334A, “Anti-diabetic peptides” (Amylin Pharmaceuticals, Inc., priority 1998, dated 2000)
Where a SMILES comes first, the peptide text is derived from it. Bridges are numbered along the chain shown (N, C = ends).

Target: T1, C1a receptor (C1a-type calcitonin receptor) (Rattus norvegicus, UniProt P32214)
T1 construct: expressed in transfected cells
T1 sequence (P32214 25-479 isoform P32214-2 limits assumed): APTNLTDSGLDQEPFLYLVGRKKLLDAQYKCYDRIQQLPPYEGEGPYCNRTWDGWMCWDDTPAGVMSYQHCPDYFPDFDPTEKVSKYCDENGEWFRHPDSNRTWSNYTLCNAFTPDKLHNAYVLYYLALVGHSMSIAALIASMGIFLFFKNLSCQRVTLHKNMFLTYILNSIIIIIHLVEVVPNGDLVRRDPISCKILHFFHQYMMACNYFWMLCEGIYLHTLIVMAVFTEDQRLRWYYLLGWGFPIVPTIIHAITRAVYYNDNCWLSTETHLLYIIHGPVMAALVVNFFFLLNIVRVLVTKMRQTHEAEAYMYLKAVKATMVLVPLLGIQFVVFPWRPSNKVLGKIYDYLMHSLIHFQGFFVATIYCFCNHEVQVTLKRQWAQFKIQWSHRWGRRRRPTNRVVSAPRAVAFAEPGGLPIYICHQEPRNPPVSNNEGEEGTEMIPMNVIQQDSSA
Assay: biochemical
Details: HEK293 plasma membranes, [35S]-GTPγS 200 pM; read-out: ED50 (nM) Example B (C1a GTPγS)
Text: Peptide compounds of the present invention may be evaluated for agonist activity using the procedures described in Example B. The plasma membrane preparation of a 7-transmembrane-G-protein coupled receptor (GPCR) contains not only the receptor but also the G-proteins which constitute the first step in the intracellular signal transduction process when the receptor is activated by an agonist ligand. […] Agonist activation of a GPCR is accompanied by displacement of GDP by GTP from this site. Thus, measurement of the binding of a radiolabelled ligand, namely [^35 S]-GTPγS, for this binding site constitutes a measure of agonist potency for a given ligand. For agonism at the C1a receptor, a similar membrane preparation to that described below for the C1a binding studies is used. C1a pcDNA construction and transfection were carried out as previously described (Albrandt et al. 1993, FEBS Letters, 325:225-232). HEK293 cell lines showing stable expression of the rat C1a-type calcitonin receptor (C1a/293) or the human C1a-type calcitonin receptor (1154/293) were selected by G418 resistance and limiting dilution culture methods. Plasma membranes were collected from homogenized HEK293 cells and used in the [^35 S]-GTPγS assay. Individual test peptides at concentrations spanning 6 log units starting at around […] were examined for their ability to bind [^35 S]-GTPγS. Maximum agonist-specific binding was measured in the presence of 1 μM human calcitonin, constitutive binding was measured in the presence of buffer alone. Peptide potencies (EC50 's for concentration response curves) were calculated by non-linear regression using Prism™ (version 2.01, GraphPAD Software, San Diego, Calif.).
[^35 S]-GTPγS C1a Agonist Studies
Evaluation of the agonist activity of compounds versus the C1a receptor was carried out as follows:
Reference peptides used in these studies were purchased from Bachem (Torrance, Calif.). All other chemicals were of the highest commercial grade. [^35 S]-GTPγS was purchased from NEN Life Science Products, Inc., Pittsburgh, Pa. [^125 I]-human calcitonin was purchased from Amersham Pharmacia Biotech, Inc., Piscataway, N.J.
Methods for C1a pcDNA construction and transfection have been previously described (Albrandt, et al. 1993, FEBS Letters, 325:225-232). HEK293 cell lines stably expressing the rat C1a-type calcitonin receptor (C1a/293) or the human C1a-type calcitonin receptor (1154/293) were selected by G418 resistance and limiting dilution culture methods.
Confluent cells were detached from tissue culture flasks by incubation with 5 mM EDTA in PBS. Cells were homogenized in ice-cold 20 mM HEPES, pH 7.4 with a Polytron homogenizer. Plasma membranes were collected using three cycles of washing in fresh buffer followed by centrifugation for 15 minutes at 48,000×g. The final membrane pellet was resuspended in 20 mM HEPES buffer containing 0.2 mM phenylmethylsulfonyl fluoride (PMSF) and stored at -70° C.
Assay buffer contained 1 μM GDP, 1 mM EDTA, 5 mM MgCl2, 20 mM Hepes, and 150 mM NaCl, pH 7.4. Membranes (7.5 μg membrane protein/well), [^35 S]-GTPγS (200 pM), and peptides were combined in 200 μL buffer in 96-well microtiter plates. After a 75 minute incubation at room temperature, well contents were harvested onto GF/B glass fiber pads using a Tomtec Mach II plate harvestor (Hamden, Conn.). Dried pads were combined with scintillant and counted on a Wallac LKB Beta Plate scintillation counter. For concentration response curves, samples were run in duplicate over a 6 log concentration range starting at 10^-6 M or 10^-7 M. Maximum agonist-specific binding was measured in the presence of 1 μM human calcitonin, constitutive binding was measured in the presence of buffer alone.
Peptide potencies (1C50 's for competitive binding, and EC50 's for concentration response curves) were calculated by non-linear regression using Prism (version 2.01, GraphPAD Software, San Diego, Calif.).

Structure (SMILES) | EC50
CC(C)C[C@H](NC(=O)[C@H](CCCNC(=N)N)NC(=O)[C@H](C)NC(=O)[C@@H](NC(=O)[C@H](C)NC(=O)[C@@H]1CSSC[C@H](NC(=O)[C@@H](N)CCCCN)C(=O)N[C@@H](CC(N)=O)C(=O)N[C@@H]([C@@H](C)O)C(=O)N[C@@H](C)C(=O)N[C@@H]([C@@H](C)O)C(=O)N1)[C@@H](C)O)C(=O)N[C@@H](C)C(=O)N[C@@H](CC(N)=O)C(=O)N[C@@H](Cc1ccccc1)C(=O)N[C@@H](CC(C)C)C(=O)N[C@H](C(=O)N[C@@H](CCCNC(=N)N)C(=O)N[C@@H](CO)C(=O)N[C@@H](CO)C(=O)NCC(=O)N[C@@H](Cc1ccc(O)cc1)C(N)=O)C(C)C [Example 5] (H-KCNTATCATARLANFLVRSSGY-NH2; disulfide 2-7) | 5.5 nM
CC(C)C[C@H](NC(=O)[C@H](CCCNC(=N)N)NC(=O)[C@H](C)NC(=O)[C@@H](NC(=O)[C@H](C)NC(=O)[C@H](C)NC(=O)[C@@H](NC(=O)[C@H](CO)NC(=O)[C@@H](N)CC(C)C)[C@@H](C)O)[C@@H](C)O)C(=O)N[C@@H](C)C(=O)N[C@@H](C)C(=O)N[C@@H](Cc1ccccc1)C(=O)N[C@@H](CC(C)C)C(=O)N[C@@H](C)C(=O)N[C@@H](CCCNC(=N)N)C(=O)N[C@@H](CO)C(N)=O [Example 6] (H-LSTAATARLAAFLARS-NH2) | 0.58 nM
CC(C)C[C@H](NC(=O)[C@H](CCCNC(=N)N)NC(=O)[C@H](C)NC(=O)[C@@H](NC(=O)[C@H](C)NC(=O)[C@@H]1CSSC[C@H](NC(=O)[C@@H](N)CCCCN)C(=O)N[C@@H](CC(N)=O)C(=O)N[C@@H]([C@@H](C)O)C(=O)N[C@@H](C)C(=O)N[C@@H]([C@@H](C)O)C(=O)N1)[C@@H](C)O)C(=O)N[C@@H](C)C(=O)N[C@@H](C)C(=O)N[C@@H](Cc1ccccc1)C(=O)N[C@@H](CC(C)C)C(=O)N[C@@H](C)C(=O)N[C@@H](CCCNC(=N)N)C(=O)N[C@@H](CO)C(=O)N[C@@H](CO)C(=O)NCC(=O)N[C@@H](Cc1ccc(O)cc1)C(N)=O [Example 1] (H-KCNTATCATARLAAFLARSSGY-NH2; disulfide 2-7) | 0.7 nM
CC(C)C[C@H](NC(=O)[C@H](CCCNC(=N)N)NC(=O)[C@H](C)NC(=O)[C@@H](NC(=O)[C@H](C)NC(=O)[C@@H]1CSSC[C@H](N)C(=O)N[C@@H](CC(N)=O)C(=O)N[C@@H]([C@@H](C)O)C(=O)N[C@@H](C)C(=O)N[C@@H]([C@@H](C)O)C(=O)N1)[C@@H](C)O)C(=O)N[C@@H](C)C(=O)N[C@@H](C)C(=O)N[C@@H](Cc1ccccc1)C(=O)N[C@@H](CC(C)C)C(=O)N[C@@H](C)C(=O)N[C@@H](CCCNC(=N)N)C(=O)N[C@@H](CO)C(N)=O [Example 3] (H-CNTATCATARLAAFLARS-NH2; disulfide 1-6) | 1.2 nM
